Active and inactive are the calls of the source.
Legend:
Mu-type opioid receptor = Mu-type opioid receptor (Homo sapiens, UniProt P35372); format: functional, cell-based;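 also: U2OS cells with beta-arrestin recruitment to OPRM1 by beta-gal complementation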
[1] = target: 5-hydroxytryptamine receptor 2A (Mus musculus, UniProt P35363); format: functional, cell-based;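 also: CHO-K1 cells with tagged receptor and beta-arrestin; agonist potency measured as compound-induced activation of the receptor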
[2] = target: T1, Long-chain-fatty-acid--AMP ligase FadD28 (Mycobacterium tuberculosis, UniProt P9WQ59); assay: Fluorescence polarization aasay to screen for inhibitors that compete for the binding of FadD28 to a bisubstrate Measured in Biochemical System Using Plate Reader - 2147-01_Inhibitor_Dose_CherryPick_Activity.; format: functional, Mycobacterium tuberculosis H37Rv
T1 sequence (P9WQ59 whole entry): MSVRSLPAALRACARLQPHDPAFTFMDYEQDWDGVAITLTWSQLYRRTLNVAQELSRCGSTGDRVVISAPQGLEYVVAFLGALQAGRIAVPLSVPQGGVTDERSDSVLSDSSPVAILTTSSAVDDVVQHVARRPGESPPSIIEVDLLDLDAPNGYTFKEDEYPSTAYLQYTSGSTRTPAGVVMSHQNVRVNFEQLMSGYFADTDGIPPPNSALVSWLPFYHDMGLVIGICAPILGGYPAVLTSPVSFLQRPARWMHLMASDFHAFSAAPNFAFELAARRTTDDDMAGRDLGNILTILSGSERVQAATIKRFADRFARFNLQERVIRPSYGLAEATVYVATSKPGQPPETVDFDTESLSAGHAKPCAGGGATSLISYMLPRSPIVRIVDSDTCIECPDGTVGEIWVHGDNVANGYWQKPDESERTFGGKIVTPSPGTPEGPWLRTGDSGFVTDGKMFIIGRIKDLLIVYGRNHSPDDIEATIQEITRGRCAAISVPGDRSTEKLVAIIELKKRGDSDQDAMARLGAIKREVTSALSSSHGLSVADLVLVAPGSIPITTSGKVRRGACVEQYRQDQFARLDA

cells = format: functional, cell-based
[3] = target: T2, Nuclear receptor subfamily 0 group B member 1 (Homo sapiens, UniProt P51843); format: functional, cell-based;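 also: HEK293T cells transfected with SF-1 and DAX-1 plus StAR promoter luciferase reporter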
T2 sequence (P51843 whole entry): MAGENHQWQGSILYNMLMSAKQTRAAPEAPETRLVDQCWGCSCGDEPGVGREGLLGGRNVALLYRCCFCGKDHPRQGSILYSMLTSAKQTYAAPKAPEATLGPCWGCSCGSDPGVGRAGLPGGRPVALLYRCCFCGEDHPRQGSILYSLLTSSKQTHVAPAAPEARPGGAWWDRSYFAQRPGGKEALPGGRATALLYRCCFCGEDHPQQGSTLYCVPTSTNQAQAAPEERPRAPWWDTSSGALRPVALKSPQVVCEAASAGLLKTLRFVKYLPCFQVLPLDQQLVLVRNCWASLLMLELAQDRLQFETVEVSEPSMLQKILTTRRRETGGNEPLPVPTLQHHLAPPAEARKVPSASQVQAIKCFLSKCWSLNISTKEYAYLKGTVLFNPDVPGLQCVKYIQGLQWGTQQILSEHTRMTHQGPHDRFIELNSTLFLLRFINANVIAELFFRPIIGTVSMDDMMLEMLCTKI

[4] = target: DNA (cytosine-5)-methyltransferase 1 (Homo sapiens, UniProt P26358); assay: DNMT1 methyltransferase inhibitors, confirmation, biochemical, fluorescent molecular beacon (AID 602386); format: functional
[5] = target: T3, Small ubiquitin-related modifier 1 (Homo sapiens, UniProt P63165); assay: inhibitors of SUMO1 peptide binding, dose response, biochemical, fluorescence polarization, uHTS hits (AID 624382); format: functional; settings: read-out: IC50_Mean
[6] = target: T4, Histone-lysine N-methyltransferase NSD2 (Homo sapiens, UniProt O96028); format: biochemical
T4 sequence (O96028 whole entry): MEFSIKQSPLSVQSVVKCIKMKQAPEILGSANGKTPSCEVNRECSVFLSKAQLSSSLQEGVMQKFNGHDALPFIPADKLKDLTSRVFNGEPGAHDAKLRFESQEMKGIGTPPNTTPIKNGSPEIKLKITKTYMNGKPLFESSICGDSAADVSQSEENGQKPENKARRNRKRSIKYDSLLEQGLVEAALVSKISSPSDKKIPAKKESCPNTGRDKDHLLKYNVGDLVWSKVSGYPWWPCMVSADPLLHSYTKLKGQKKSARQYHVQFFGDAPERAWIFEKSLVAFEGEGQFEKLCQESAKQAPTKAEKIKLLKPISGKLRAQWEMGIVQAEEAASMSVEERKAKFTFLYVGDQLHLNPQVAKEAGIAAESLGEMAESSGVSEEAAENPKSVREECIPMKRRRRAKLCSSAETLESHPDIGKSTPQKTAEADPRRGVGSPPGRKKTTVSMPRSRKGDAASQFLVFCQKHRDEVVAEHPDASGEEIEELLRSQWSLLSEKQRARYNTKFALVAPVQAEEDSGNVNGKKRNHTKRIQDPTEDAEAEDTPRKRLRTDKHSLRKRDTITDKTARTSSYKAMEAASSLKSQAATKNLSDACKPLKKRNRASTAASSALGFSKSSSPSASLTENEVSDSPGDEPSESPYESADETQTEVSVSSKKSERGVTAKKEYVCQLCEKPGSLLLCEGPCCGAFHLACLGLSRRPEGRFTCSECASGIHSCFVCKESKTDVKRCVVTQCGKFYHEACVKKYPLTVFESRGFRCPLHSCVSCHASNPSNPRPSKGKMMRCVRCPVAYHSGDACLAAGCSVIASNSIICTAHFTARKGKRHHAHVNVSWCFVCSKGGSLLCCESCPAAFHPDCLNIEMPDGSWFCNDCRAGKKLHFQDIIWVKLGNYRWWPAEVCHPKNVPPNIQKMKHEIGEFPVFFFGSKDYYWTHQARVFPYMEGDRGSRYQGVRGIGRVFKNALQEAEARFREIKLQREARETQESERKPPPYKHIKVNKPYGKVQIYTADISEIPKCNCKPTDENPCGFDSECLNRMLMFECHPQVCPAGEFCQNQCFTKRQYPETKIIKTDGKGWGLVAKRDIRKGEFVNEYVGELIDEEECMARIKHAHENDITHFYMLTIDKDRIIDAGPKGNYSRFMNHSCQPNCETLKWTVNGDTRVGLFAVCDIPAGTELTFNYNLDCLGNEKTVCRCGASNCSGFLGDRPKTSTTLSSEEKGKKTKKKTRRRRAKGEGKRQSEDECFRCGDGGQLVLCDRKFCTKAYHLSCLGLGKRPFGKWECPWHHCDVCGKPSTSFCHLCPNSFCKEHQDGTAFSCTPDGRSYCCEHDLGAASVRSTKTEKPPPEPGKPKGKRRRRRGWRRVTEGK

[7] = target: T5, RNA-binding protein pos-1 (Caenorhabditis elegans, UniProt G5EF15); assay: inhibitors of POS-1/mex-3 RNA binding, dose response, biochemical, fluorescence polarization (AID 1964);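 also: purified POS-1 fused to maltose binding protein made in E. coli; potency of compounds blocking POS-1 binding to fluorescent RNA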
T5 sequence (G5EF15 whole entry): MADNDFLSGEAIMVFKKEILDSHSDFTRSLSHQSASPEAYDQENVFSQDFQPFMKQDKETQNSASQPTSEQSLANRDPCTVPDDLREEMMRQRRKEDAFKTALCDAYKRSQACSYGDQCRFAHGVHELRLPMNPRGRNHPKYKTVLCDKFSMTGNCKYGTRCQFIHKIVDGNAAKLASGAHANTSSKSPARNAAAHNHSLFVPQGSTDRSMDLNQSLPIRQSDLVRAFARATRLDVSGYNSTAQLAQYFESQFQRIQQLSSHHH

[8] = target: T3, Small ubiquitin-related modifier 1; assay: inhibitors of SUMO1 partner interactions, dose response, biochemical, FRET (AID 624383); format: functional; settings: read-out: IC50_Mean
[9] = target: T6, Zinc finger protein mex-5 (Caenorhabditis elegans, UniProt Q9XUB2); assay: MEX-5/TCR-2 RNA interaction inhibitors, dose response, biochemical, C. elegans, fluorescence polarization (AID 1960)
T6 sequence (Q9XUB2 whole entry): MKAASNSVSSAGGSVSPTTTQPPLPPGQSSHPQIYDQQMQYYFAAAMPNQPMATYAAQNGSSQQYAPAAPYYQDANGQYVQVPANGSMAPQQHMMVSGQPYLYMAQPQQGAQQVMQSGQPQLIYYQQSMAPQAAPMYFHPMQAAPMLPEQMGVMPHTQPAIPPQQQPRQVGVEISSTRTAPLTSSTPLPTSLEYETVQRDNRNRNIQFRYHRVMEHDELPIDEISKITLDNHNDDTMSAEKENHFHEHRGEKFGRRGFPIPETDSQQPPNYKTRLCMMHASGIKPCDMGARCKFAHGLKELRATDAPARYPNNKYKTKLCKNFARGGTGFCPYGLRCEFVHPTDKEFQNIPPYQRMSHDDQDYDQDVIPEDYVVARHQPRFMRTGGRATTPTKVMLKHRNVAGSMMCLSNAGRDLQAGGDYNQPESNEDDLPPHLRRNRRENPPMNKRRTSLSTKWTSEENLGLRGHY

Large T antigen = Large T antigen (Simian virus 40, UniProt P03070); format: functional, Betapolyomavirus macacae;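 also: Confirmatory-stage PubChem screen for compounds that inhibit SV40 T antigen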
[10] = target: Induced myeloid leukemia cell differentiation protein Mcl-1 (Homo sapiens, UniProt Q07820); format: functional
[11] = Luminescence Cell-Based Dose Response HTS to Identify Inhibitors of 5'UTR Stem-Loop Driven Prion Protein mRNA Translation in H4 Neuroglioblastoma Cells. [Related pubchem assays: 1827 (Project Summary), 1813 (Primary HTS)]; format: functional
HT-1080 = assay: cytotoxicity in HT1080 fibrosarcoma cells, cell-based, fluorescence readout (AID 620); format: functional; settings: Homo sapiens
[12] = target: Luciferin 4-monooxygenase (Photinus pyralis, UniProt P08659); assay: Counter Screen for Luciferase-based Assay Positives. [Related pubchem assays: 620, 618, 411 ]
Protein skinhead-1 = target: T7, Protein skinhead-1 (Caenorhabditis elegans, UniProt P34707); format: functional
T7 sequence (P34707 whole entry): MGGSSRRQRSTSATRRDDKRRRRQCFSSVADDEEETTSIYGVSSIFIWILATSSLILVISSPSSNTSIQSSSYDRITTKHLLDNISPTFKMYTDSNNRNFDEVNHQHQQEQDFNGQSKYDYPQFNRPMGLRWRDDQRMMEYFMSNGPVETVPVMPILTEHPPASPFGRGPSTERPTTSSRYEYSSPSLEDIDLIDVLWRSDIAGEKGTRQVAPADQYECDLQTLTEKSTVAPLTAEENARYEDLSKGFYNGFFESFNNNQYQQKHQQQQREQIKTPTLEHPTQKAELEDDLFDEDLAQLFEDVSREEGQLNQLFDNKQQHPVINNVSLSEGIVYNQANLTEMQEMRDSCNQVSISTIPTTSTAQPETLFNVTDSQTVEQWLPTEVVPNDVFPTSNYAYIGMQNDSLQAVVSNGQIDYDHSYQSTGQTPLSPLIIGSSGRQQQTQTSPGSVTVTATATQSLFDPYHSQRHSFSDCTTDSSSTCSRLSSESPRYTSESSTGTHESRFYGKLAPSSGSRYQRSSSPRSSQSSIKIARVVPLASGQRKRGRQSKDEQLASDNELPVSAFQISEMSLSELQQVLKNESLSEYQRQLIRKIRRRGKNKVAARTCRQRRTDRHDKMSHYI

[13] = CEM21 lymphoblast cell cytotoxicity, dose response, cytotoxicity control for viral fusion inhibitor project, CellTiter-Glo luminescence, cherry-picked (AID 652042); format: functional, cell-based;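 also: potency for signal decrease meaning cytotoxicity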
[14] = inhibitors of clade B AD8 Env fusion, dose response, cell-based, cherry-pick (AID 652062); format: functional;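 also: luciferase signal from cell-cell fusion driven by HIV-1 clade B AD8 Env; potency is for inhibitors of fusion seen as a drop in luminescence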
[15] = inhibitors of HIV Env-driven cell fusion, dose response, cherry-pick (AID 652057); format: functional, cell-based
[16] = ZM109 Env clade C HIV-1 fusion inhibitors, dose response, HeLa effector, CEM target cells, luciferase, cherry-pick (AID 652058); format: functional, cell-based

Chain of Mu-type opioid receptor (P35372 whole entry): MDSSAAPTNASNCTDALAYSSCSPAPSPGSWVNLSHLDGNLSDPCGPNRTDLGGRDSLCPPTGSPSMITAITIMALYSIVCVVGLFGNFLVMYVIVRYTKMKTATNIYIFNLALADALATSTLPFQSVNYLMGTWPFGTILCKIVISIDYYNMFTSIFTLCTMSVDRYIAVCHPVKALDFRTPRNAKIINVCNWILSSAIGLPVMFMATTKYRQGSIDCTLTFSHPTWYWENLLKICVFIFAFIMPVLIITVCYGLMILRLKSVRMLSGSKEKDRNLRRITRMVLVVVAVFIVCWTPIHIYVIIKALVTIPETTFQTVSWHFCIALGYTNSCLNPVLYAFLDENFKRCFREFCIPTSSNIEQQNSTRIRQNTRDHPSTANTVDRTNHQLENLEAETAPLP
Chain of 5-hydroxytryptamine receptor 2A (P35363 whole entry): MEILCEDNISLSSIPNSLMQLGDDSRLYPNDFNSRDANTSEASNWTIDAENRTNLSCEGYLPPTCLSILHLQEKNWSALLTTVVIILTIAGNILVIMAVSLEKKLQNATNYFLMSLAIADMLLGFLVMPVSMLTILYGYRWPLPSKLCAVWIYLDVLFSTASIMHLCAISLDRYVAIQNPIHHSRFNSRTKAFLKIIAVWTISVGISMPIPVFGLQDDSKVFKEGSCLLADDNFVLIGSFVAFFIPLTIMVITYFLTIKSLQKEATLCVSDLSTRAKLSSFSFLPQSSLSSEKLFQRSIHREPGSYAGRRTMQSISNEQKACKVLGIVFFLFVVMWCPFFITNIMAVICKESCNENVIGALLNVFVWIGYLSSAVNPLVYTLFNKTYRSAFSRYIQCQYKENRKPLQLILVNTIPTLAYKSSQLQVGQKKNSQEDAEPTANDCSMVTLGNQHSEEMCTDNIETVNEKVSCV
T3 sequence (P63165 whole entry): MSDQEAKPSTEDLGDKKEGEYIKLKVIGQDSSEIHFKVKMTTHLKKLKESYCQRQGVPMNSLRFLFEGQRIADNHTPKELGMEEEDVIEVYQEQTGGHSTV
Chain of Induced myeloid leukemia cell differentiation protein Mcl-1 (Q07820 whole entry): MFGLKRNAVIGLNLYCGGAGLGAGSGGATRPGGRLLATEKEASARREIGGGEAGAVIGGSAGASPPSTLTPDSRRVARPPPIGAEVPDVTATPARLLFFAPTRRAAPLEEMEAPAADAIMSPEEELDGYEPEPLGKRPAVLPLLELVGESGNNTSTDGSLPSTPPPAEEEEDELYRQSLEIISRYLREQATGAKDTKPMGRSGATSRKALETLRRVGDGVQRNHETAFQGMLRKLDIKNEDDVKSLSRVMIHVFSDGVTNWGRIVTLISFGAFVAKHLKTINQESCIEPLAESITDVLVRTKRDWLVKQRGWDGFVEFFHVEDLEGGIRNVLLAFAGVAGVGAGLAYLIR
Chain of Luciferin 4-monooxygenase (P08659 whole entry): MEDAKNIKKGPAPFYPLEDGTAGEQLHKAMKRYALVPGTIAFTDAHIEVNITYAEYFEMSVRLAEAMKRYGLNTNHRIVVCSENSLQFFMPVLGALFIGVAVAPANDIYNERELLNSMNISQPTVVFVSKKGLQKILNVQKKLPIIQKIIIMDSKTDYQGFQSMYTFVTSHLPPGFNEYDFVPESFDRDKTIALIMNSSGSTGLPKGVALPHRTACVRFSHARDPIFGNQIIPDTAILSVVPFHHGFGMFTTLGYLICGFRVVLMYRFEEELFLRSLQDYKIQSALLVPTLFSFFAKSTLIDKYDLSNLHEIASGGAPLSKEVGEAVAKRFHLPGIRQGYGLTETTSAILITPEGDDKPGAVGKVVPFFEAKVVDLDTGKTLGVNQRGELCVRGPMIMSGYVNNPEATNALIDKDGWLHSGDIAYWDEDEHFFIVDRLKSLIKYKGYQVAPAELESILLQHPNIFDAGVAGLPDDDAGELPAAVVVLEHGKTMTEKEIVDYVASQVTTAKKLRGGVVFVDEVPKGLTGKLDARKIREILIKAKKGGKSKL
Chain of Large T antigen (P03070 whole entry): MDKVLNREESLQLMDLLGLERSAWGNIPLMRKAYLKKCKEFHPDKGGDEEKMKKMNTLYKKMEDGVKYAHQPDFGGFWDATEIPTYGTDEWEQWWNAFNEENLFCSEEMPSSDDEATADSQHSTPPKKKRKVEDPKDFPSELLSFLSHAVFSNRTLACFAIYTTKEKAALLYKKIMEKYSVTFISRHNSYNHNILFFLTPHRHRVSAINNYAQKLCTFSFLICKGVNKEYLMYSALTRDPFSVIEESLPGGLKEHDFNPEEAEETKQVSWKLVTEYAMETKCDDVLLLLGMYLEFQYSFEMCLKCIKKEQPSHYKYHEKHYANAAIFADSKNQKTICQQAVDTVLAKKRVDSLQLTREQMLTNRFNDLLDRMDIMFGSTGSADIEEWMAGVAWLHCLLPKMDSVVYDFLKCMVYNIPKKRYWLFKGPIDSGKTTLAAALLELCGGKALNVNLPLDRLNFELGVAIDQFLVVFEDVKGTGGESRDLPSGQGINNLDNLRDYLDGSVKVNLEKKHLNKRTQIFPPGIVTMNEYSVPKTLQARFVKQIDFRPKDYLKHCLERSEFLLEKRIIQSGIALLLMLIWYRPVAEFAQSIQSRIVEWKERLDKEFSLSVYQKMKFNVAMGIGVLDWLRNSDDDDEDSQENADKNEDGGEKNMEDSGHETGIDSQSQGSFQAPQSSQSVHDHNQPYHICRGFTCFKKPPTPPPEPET
Chain of DNA (cytosine-5)-methyltransferase 1 (P26358 whole entry): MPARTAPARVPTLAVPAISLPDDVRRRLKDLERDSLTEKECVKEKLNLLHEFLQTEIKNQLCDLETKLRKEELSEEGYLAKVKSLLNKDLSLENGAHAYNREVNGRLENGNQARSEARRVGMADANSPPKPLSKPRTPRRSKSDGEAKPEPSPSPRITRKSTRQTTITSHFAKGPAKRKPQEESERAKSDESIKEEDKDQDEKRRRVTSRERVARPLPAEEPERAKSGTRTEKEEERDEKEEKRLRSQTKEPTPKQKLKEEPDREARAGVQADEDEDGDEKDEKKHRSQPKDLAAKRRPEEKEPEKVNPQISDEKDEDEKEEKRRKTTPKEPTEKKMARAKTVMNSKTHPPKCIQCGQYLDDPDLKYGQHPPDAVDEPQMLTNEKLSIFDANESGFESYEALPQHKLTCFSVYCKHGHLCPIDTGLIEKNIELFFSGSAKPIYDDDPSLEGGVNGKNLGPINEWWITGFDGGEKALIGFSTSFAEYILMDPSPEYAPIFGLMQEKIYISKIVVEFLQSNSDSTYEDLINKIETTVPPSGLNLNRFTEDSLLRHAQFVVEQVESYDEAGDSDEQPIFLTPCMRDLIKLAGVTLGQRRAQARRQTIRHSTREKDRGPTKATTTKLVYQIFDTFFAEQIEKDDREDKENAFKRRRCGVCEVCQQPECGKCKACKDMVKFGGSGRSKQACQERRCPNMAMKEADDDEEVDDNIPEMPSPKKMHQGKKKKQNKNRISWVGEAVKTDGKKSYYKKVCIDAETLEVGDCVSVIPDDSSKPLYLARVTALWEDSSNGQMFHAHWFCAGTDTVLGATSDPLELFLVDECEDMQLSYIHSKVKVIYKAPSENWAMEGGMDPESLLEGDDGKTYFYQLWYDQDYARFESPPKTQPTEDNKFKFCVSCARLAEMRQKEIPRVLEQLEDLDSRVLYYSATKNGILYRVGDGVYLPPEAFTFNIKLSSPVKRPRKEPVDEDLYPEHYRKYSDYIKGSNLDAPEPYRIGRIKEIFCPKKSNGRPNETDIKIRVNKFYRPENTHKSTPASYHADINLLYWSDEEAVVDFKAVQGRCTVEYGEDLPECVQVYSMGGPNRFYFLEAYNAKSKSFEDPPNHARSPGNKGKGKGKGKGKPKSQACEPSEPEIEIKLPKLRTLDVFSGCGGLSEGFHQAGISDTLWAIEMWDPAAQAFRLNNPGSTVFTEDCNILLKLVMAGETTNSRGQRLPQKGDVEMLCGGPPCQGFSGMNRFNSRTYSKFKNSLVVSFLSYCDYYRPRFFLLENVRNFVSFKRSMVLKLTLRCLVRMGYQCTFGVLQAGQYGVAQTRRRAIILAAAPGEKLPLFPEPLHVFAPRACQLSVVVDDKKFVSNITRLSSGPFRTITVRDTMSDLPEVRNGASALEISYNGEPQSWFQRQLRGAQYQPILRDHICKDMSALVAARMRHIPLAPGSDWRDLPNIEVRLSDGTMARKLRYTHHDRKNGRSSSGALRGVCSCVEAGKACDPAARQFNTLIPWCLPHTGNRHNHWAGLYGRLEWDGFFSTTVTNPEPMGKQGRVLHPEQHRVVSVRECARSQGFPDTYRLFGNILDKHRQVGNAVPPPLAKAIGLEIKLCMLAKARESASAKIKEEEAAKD

## CCOC(=O)N1CCN(Cc2ccc(OCC(O)CN3CCCCC3)cc2)CC1 (centres undefined)
Mu-type opioid receptor
  EC50: 92.5 µM (inactive)
[1]
  EC50: 2.22 µM (active)

## c1cnc(N2CCN(Cc3ccc4c(c3)OCO4)CC2)nc1
Mu-type opioid receptor
  EC50: 92.5 µM (inactive)
[1]
  EC50: 0.00986 µM (active)

## CCc1cccc2c(C(=O)CN3C(=O)NC4(CCc5ccccc54)C3=O)c[nH]c12 (centres undefined)
[2]
  AC50: 29.2 µM (active)
cells
  IC50: > 67.5 µM (inactive)
[3]
  IC50: > 67.5 µM (inactive)

## O=C(COC(=O)c1ccc(O)cc1O)c1ccc(Cl)cc1
cells
  IC50: > 67.5 µM (inactive)
[3]
  IC50: > 67.5 µM (inactive)

## O=C(O)c1ccc(-n2cccc2/C=C2/NC(=O)N(c3ccccc3)C2=O)cc1
[4]
  IC50: 3.83 µM (active)
[5]
  IC50: > 66.6 µM (inactive)
[6]
  AC50: 5.87 µM (active)
[7]
  EC50: > 300 µM (not active)
[8]
  IC50: 9.62 µM (active)
[9]
  EC50: 71.1 µM (active)
Large T antigen
  IC50: > 100 µM (active)
[10]
  IC50: 3.51 µM (active)

## O=C(/C=C\Nc1ccccn1)c1ccccc1
[11]
  EC50: 10.7 µM (inconclusive)
HT-1080
  EC50: > 50 µM (not active)
cells
  IC50: > 67.5 µM (inactive)
[3]
  IC50: > 67.5 µM (inactive)
[12]
  EC50: < 0.2 µM (active)
Protein skinhead-1
  IC50: 15.1 µM (active)

## CC[C@@H](C)[C@H](C(CC(=O)N1CCCC1[C@@H](OC)[C@H](C)C(=O)N[C@H](Cc1ccccc1)c1nccs1)OC)N(C)C(=O)[C@H](NC(=O)[C@@H](C(C)C)N(C)C)C(C)C (some centres undefined)
cells
  IC50: > 67.5 µM (inactive)
[3]
  IC50: > 67.5 µM (inactive)

## CSCCC(=O)N1CC[C@@H](N2CCN(c3ccccc3F)CC2)[C@H](O)C1
Mu-type opioid receptor
  EC50: 92.5 µM (inactive)
[1]
  EC50: 41.7 µM (inactive)

## COc1cccc(CNc2nc(NCc3ccccc3OC)nc3ccsc23)c1
[13]
  AC50: 68.5 µM (active)
[14]
  AC50: 16.8 µM (active)
Protein skinhead-1
  IC50: > 100 µM (inactive)
[15]
  AC50: 31.9 µM (active)

## O=C(Nc1ccc(Cl)c(Cl)c1)N[C@H]1CC[C@H](CCn2cc(C3CCCCC3)nn2)O[C@@H]1CO
[16]
  AC50: 16.8 µM (active)
[13]
  AC50: 61 µM (active)
[14]
  AC50: 43.9 µM (active)
[15]
  AC50: 18.9 µM (active)

## CCC1CS/C(=N\c2ccc(C)cc2)N1C(=O)CN1C(=O)NC2(CCCC2)C1=O (centres undefined)
cells
  IC50: > 67.6 µM (inactive)
[3]
  IC50: > 67.6 µM (inactive)

## CC(=O)NCC1(c2ccccc2)CCN(CC2COc3ccccc3O2)CC1 (centres undefined) [ACOXATRINE]
Mu-type opioid receptor
  EC50: 92.6 µM (inactive)
[1]
  EC50: 76.2 µM (inactive)

— ChEMBL document CHEMBL1201862, “PubChem BioAssay data set” (2004)
